Test results as given in patent publication US6969583B2, “Method for detecting variant HBV” (Melbourne Health, priority 2000, dated 2005).
pIC50: −log10 of the molar value. Read-outs that look alike come from different tables or passages of the source.

Assays:
Assay type in all cases: cell-based, Hepatitis B virus
L526M HBV baculovirus = assay: Antiviral testing with L526M HBV baculovirus in HepG2 cells (Example 15)
Procedure: (§1) HepG2 cells were seeded at approximately 20-40% confluency and then were grown for 16-24 hours before infection. On the day of infection, triplicate plates of cells were trypsinized, and viable cell number was determined with a hemocytometer using Trypan blue exclusion. Average cell counts were calculated and used to determine the volume of high-titer viral stock necessary to infect cells at the indicated moi. HepG2 cells were washed one time with serum-free MEM to remove traces of serum. Baculovirus was diluted into MEM without serum to achieve the appropriate moi using volumes of 1.0, 0.5, and 0.25 ml to infect 100-mm, 60 mm, and 35-mm dishes, respectively. Baculovirus was adsorbed to HepG2 cells for one hour at 37° C. with gentle rocking every 15 minutes to ensure that the inoculum was evenly distributed. The inoculum was then aspirated and HepG2 cells were washed two times with phosphate-buffered saline and refed MEM-FBS with or without various concentrations of agents.
(§2) HBV core particles were isolated from the cytoplasmic fraction of HepG2 cells lysed in 0.5% w/v NP-40. Cytoplasmic extracts were adjusted to 10 mmol/l McC12 and unprotected DNA was removed by an incubation to […] for 1.5 hours at 37° C. Following sequential phenol and chloroform extractions, nucleic acids were recovered by ethanol precipitation. Nucleic acids were resuspended in 50 μl/l TE (10 mmol/l Tris, 1 mmol/l ethylenedianinetetraacetic acid), normalized by OD260, and digested with 100 μg/ml RNase (Boehringer Mannheim, Indianapolis, Ind.) for one hour at 37° C. before analysis by electrophoresis and Southern blotting. A BioRad GS-670 imaging densitometer and the Molecular Analyst software (BioRad, Hecules Calif.) was used to analyze suitable exposures of Southern blots. Densitometry data was fitted to logistic dose response curves using the TableCurve2D software package from Jandel Scientific. Logistic dose response equations were used to calculate IC50 and IC90 values and co-efficients of variation.
(§3) 3TC and PCV were a gift from Klaus Esser, SmithKline Beecham, Collegeville, Pa. PMEA was obtained from Gilead (Foster City, Calif.). 3TC was resuspended in sterile water, aliquoted, and frozen at −20° C. to avoid repeated freezing and thawing of the drug. PMEA was resuspended in sterile water after the pH was adjusted to 7.0 with NaOH. PCV was resuspended in dimethyl sulphoxide. Medium containing 3TC was prepared daily as needed using fresh aliquots of 3TC. In experiments in which 3TC treatment was initiated after viral infection, HepG2 cells were exposed to the indicated concentration of 3TC immediately after infection with HBV baculovirus. In experiments utilizing pretreatment with 3TC, cells were fed medium containing 3TC 16 hours prior to HBV baculovirus infection, HBV baculovirus infection was also carried out in medium containing 3TC, and cells were refed fresh medium containing 3TC immediately after completion of the infection and washing procedures. Treatment with PMEA and PCV were conducted in a similar manner.

[1] = system: M550I recombinant HBV-baculovirus; assay: Antiviral testing, M550I recombinant HBV-baculovirus in HepG2 cells (Example 17); settings: intracellular single-stranded HBV DNA, NDR = no dose response
Procedure: as §1
(§4) HBV core particles were isolated from the cytoplasmic fraction of HepG2 cells lysed in 0.5% w/v NP-40. […]
(§5) Conditioned medium was collected from HepG2 cells and subjected to centrifugation at 6,000 g for five minutes to remove cellular debris. […] DNA was then analyzed by electrophoresis and Southern blotting. […]

[2] = system: wild-type HBV baculovirus; assay: Antiviral testing with wild-type HBV baculovirus in HepG2 cells (Example 15, Southern blot densitometry)
Procedure: as §1, §2, §3
The dose effect of 3TC and PMEA, on wild-type HBV is shown graphically in FIG. 6 (A, B,) and a Southern Blot of intracellular HBV replicative intermediates and extracellular virus produced by HepG2 cells transduced with wild-type HBV-baculovirus in the presence of increasing concentrations of PCV is shown in FIG. 6C and the IC50 for each antiviral agent is shown in Table 2.

[3] = system: L526M/M550V HBV baculovirus; assay: Antiviral testing with L526M/M550V HBV baculovirus in HepG2 cells (Example 15)
Procedure: as §1, §2, §3

M550I HBV baculovirus = assay: Antiviral testing with M550I HBV baculovirus in HepG2 cells (Example 15)
Procedure: as §1, §2, §3

[4] = system: L526M/M550V recombinant HBV-baculovirus; assay: Antiviral testing, L526M/M550V recombinant HBV-baculovirus in HepG2 cells (Example 17); settings: intracellular single-stranded HBV DNA, NDR = no dose response
Procedure: as §1, §4, §5

[5] = system: Precore/L526M/M550V recombinant HBV-baculovirus; assay: Antiviral testing, Precore/L526M/M550V recombinant HBV-baculovirus in HepG2 cells (Example 17); settings: NDR = no dose response
Procedure: as §1, §2
(§6) Conditioned medium was collected from HepG2 cells and subjected to centrifugation at 6,000 g for five minutes to remove cellular debris. HBV particles were precipitated with 10% w/v PEG 8000 and were concentrated by centrifugation at 12,000 ×g. Viral pellets were resuspended us 1 ml of MEM-FBS and divided into two aliquots. One set of aliquots was treated with 750 μg/ml Pronase for one hour and then with […] DNase 1 for one hour. Both sets of aliquots were then digested with Proteinase K, and extracted with phenol and chloroform. DNA was precipitated with 0.1 volume of 3 mol/l sodium acetate and 1 volume of isopropanol. Ten micrograms of transfer RNA was added as a carrier during precipitation. […] DNA was then analyzed by electrophoresis and Southern blotting. […]

[6] = system: Precore/M550I recombinant HBV-baculovirus; assay: Antiviral testing, Precore/M550I recombinant HBV-baculovirus in HepG2 cells (Example 17); settings: NDR = no dose response
Procedure: as §1, §2, §6

[7] = system: any HBV/baculovirus variant encoding the mutations at M550I or L526M/M550V; assay: Southern blots of HBV DNA from HepG2 cells transduced with lamivudine-resistant recombinant HBV-baculovirus variants (Example 17); settings: intracellular and extracellular HBV DNA, no dose response could be plotted
Procedure: as §1, §4, §5

[8] = system: precore (G1896A) recombinant HBV-baculovirus; assay: Antiviral testing of the precore mutant (G1896A) HBV baculovirus in HepG2 cells (Example 17); settings: for IC50: Hepatitis B virus, HepG2, Precore (G1896A), averages where footnoted
Procedure: as §1, §2
(§7) Conditioned medium was collected from HepG2 cells and subjected to centrifugation at 6,000 g for five minutes to remove cellular debris. HBV particles were precipitated with 10% w/v PEG 8000 and were concentrated by centrifugation at 12,000 ×g. Viral pellets were resuspended us 1 ml of MEM-FBS and divided into two aliquots. One set of aliquots was treated with 750 μg/ml Pronase for one hour and then with […] DNase 1 for one hour. Both sets of aliquots were then digested with Proteinase K, and extracted with phenol and chloroform. DNA was precipitated with 0.1 volume of 3 mol/l sodium acetate and 1 volume of isopropanol. Ten micrograms of transfer RNA was added as a carrier during precipitation. Pellets were resuspended in 25 μl of TE and digested with 0.5 mg/ml RNase for one hour. DNA was then analyzed by electrophoresis and Southern blotting.
as §3

[9] = system: wild-type (WT) recombinant HBV-baculovirus; assay: Antiviral testing, wild-type (1.3x genomic length) recombinant HBV-baculovirus in HepG2 cells (Example 17); settings: Hepatitis B virus, HepG2, WT, averages where footnoted
Procedure: as §1, §2, §7, §3

[10] = extracellular relaxed circular HBV DNA
[11] = intracellular single-stranded HBV DNA
[12] = extracellular relaxed circular HBV DNA, read-out: IC50 (μM), EC RC
[13] = intracellular single-stranded HBV DNA, read-out: IC50 (μM), IC SS

Nc1nc2c(ncn2CCC(CO)CO)c(=O)[nH]1 [Penciclovir, 9-[4-hydroxy-3-(hydroxymethyl)but-1-yl]guanine]
Resistance Factor (L526M HBV baculovirus; 526 (L526M) HBV, mutant IC50 divided by wt IC50, nearest integer): 9 | change in sensitivity of L526M compared to wild-type (L526M HBV baculovirus; FIG. 7A-7C, result in words): No significant change | pIC50 (L526M HBV baculovirus; Hepatitis B virus, HepG2): 3.99 | inhibition at 1 µM (L526M HBV baculovirus; Hepatitis B virus, HepG2, read-out: Inhibition at 1 μM): -3% | IC50 (μM), IC SS [1]: NDR | inhibition at 1 µM ([2]; Hepatitis B virus, HepG2, wt HBV, ds HBV DNA band density vs untreated controls, estimated from fitted curve, negative = stimulation of replication): 7% | pIC50 ([2]; Hepatitis B virus, wt HBV, ds HBV DNA bands, HepG2 cells): 4.94 | effect on wild-type HBV replication ([2]; dose effect, FIG. 6, result in words): modest effect | Resistance Factor ([2]; {}): 1 | change in sensitivity of L526M/M550V ([3]; FIG. 8A-8C, result in words): no substantial change | inhibition at 1 µM ([3]; Hepatitis B virus, HepG2, dual (L526M/M550V) HBV, ds HBV DNA band density vs untreated controls, estimated from fitted curve, negative = stimulation): -10% | pIC50 ([3]; Hepatitis B virus, dual (L526M/M550V) HBV, ds HBV DNA bands, HepG2 cells): 3.43 | Resistance Factor ([3]; {}): 32 | inhibition at 1 µM (M550I HBV baculovirus; Hepatitis B virus, HepG2, 550 (M550I) HBV, ds HBV DNA band density vs untreated controls, estimated from fitted curve, negative = stimulation): -24% | IC50 (M550I HBV baculovirus; Hepatitis B virus, HepG2, 550 (M550I) HBV, ds HBV DNA bands, extrapolated value, read-out: IC50 (μM), extrapolated value): 1220 µM | Resistance Factor (M550I HBV baculovirus; {}): 106 | IC50 (μM), IC SS [4]: NDR | IC50 (μM), EC RC [5, 10]: NDR | IC50 (μM), IC SS [5, 11]: NDR | IC50 (μM), EC RC [6, 10]: NDR | IC50 (μM), IC SS [6, 11]: NDR | resistance conferred by M550I or L526M/M550V changes [7]: high degree of resistance | IC50 [8, 12]: 6 µM | IC50 [8, 13]: 85 µM | sensitivity of G1896A HBV compared with wild type HBV ([8]; result in words): may be more sensitive | IC50 [9, 12]: 23 µM | IC50 [9, 13]: 226 µM
